# Like-named read-outs stand apart in the source and are kept apart here.
# Experiments:
# C. elegans L3 larvae = C. elegans L3 larvae abnormal locomotory behaviour on solid agar; settings: solid agar MYOB + E. coli OP50, mean of 4 replicates; for % C. elegans L3 larvae any phene 1 h (conc.): 1 h exposure; for % C. elegans L3 larvae any phene 6 h (conc.): 6 h exposure; for % C. elegans L3 larvae any phene 24 h (conc.): 24 h exposure
# Experimental: 20 animals were scored after either 1, 6 or 24 hours of exposure to drug (as indicated) per replicate. […] Data are reported as the mean % of animals with abnormal phenotype over 4 independent replicates.
# [1] = test system: Danio rerio (zebrafish) embryos; experiment: Danio rerio (zebrafish) embryo abnormal developmental phenotype; type: in vivo
# [2] = test system: Pristionchus pacificus young adult animals; experiment: Pristionchus pacificus young adult abnormal locomotory behaviour on solid agar; type: in vivo; settings: read-out: P. pacificus, young adult 1 h any phene at 1 h (EC50 (μM))
# [3] = test system: D. immitis larval stage 3 (L3) worms; experiment: D. immitis L3 development assay; type: in vivo; settings: 72 h, read-out: D. immitis L3 development EC50 (μM)
# [4] = test system: Heligmosomoides polygyrus larval stage 3 (L3) worms; type: in vivo; settings: 72 h incubation, one replicate
# Strongyloides ratti L3 = type: in vivo; settings: 72 h incubation, 1 replicate
# [5] = read-out: D. rerio (zebrafish) any phenotype EC50 (μM)
# [6] = 1 day post fertilization embryos through 48 h of development, tested at 15 and 3.75 μM, select compounds at 60 and 30 μM, read-out: D. rerio (zebrafish) any phenotype EC50
# [7] = 1 h exposure, tested at 3.75, 15 and 60 μM, NA = not active, no phenotype at 60 μM
Structure (SMILES),% C. elegans L3 larvae any phene 1 h (conc.) (C. elegans L3 larvae; 3.75 uM) [%],% C. elegans L3 larvae any phene 6 h (conc.) (C. elegans L3 larvae; 3.75 uM) [%],% C. elegans L3 larvae any phene 24 h (conc.) (C. elegans L3 larvae; 3.75 uM) [%],% C. elegans L3 larvae any phene 1 h (conc.) (C. elegans L3 larvae; 15 uM) [%],% C. elegans L3 larvae any phene 6 h (conc.) (C. elegans L3 larvae; 15 uM) [%],% C. elegans L3 larvae any phene 24 h (conc.) (C. elegans L3 larvae; 15 uM) [%],% C. elegans L3 larvae any phene 1 h (conc.) (C. elegans L3 larvae; 60 uM) [%],% C. elegans L3 larvae any phene 6 h (conc.) (C. elegans L3 larvae; 60 uM) [%],% C. elegans L3 larvae any phene 24 h (conc.) (C. elegans L3 larvae; 60 uM) [%],"EC50 [1, 5] [µM]",EC50 ([2]; 1 h) [µM],"EC50 [1, 6] [µM]","EC50 [2, 7] [µM]",EC50 [3] [µM],H. Polygyrus % lethality L3 25 μM [4] [%],S. ratti L3 % lethality 25 μM (Strongyloides ratti L3) [%]
c1cc(N2CCN(CC3CCCCC3)CC2)ccn1 [IV-a],0.0,0.0,0.0,10.8,0.0,0.0,24.2,12.5,0.0,> 15,,,,,,
CCN1CCN(CC2CCCCC2)CC1 [I-a],3.3,0.0,0.0,6.7,0.0,0.0,19.2,5.8,0.0,> 15,> 60,,,,,
O=C(C1CCCC1)N1CCN(c2ccc([N+](=O)[O-])cc2)CC1 [III-b],0.0,0.0,0.0,0.0,0.0,0.0,9.2,8.3,0.0,,,7.8,> 60,,,
O=C(C1CCCCC1)N1CCN(c2ccc([N+](=O)[O-])cc2)CC1 [III-a],0.8,0.8,0.0,0.8,5.8,0.0,4.2,24.2,0.0,,,> 15,> 60,> 50,,
Cc1cc([N+](=O)[O-])ccc1N1CCN(CC2CCCCC2)CC1 [V-a],15.8,0.0,0.0,33.3,15.8,0.0,63.3,27.5,0.0,5.1,> 60,,,15,,
CC1CCC(N2CCN(c3cccc(Cl)c3)CC2)C1 (centres unmarked) [VI-d],80.0,11.7,0.0,100.0,59.2,0.0,100.0,100.0,66.7,15,2.5,,,,56.5,17.9
O=[N+]([O-])c1cccc(CN2CCN(C3CCCCC3)CC2)c1 [II-a],0.8,0.0,0.0,0.0,0.0,0.0,6.7,2.5,0.0,,> 60,,,,,
FC(F)(F)c1cccc(N2CCN(C3CCCCCCC3)CC2)c1 [VI-i],26.7,0.0,0.0,70.0,0.0,0.0,96.7,58.3,5.0,4,49.6,,,> 50,11.2,0
FC(F)(F)c1cccc(N2CCN(CC3CCCCC3)CC2)c1 [VI-g],9.2,0.0,0.0,65.0,21.7,0.0,94.2,54.2,1.7,29.3,,,,,11.6,0
FC(F)(F)c1cccc(N2CCN(C3CCCCCC3)CC2)c1 [VI-h],64.2,0.0,0.0,100.0,37.5,25.0,100.0,100.0,62.5,7.8,,,,,0,0
O=[N+]([O-])c1ccc(CN2CCN(C3CCCC3)CC2)cc1 [II-b],0.0,0.8,0.0,2.5,0.0,0.0,23.3,29.2,0.0,,> 60,,,,,
Fc1ccccc1N1CCN(C2CCCCCC2)CC1 [VI-j],25.8,0.8,0.0,69.2,12.5,0.0,100.0,41.7,9.2,21.1,41.5,,,,35.4,66.7
O=C(C1CCC1)N1CCN(c2ccc(F)cc2)CC1 [III-c],0.0,0.0,0.0,10.0,0.0,0.0,27.5,15.0,0.0,,,> 15,> 60,,,
O=C(c1ccc([N+](=O)[O-])cc1)N1CCN(C2CCCC2)CC1 [III-d],0.8,0.0,0.0,14.2,1.7,0.0,30.8,17.5,0.0,,,> 15,> 60,,,
c1cc(N2CCN(CC3CCC3)CC2)ccn1 [IV-b],4.2,0.0,0.0,21.7,0.8,0.0,30.0,4.2,1.7,> 15,,,,,,
FC(F)(F)c1cccc(N2CCN(CC3CC4C=CC3C4)CC2)c1 (centres unmarked) [VI-f],34.2,0.0,0.0,81.7,83.2,52.5,100.0,100.0,92.5,7.8,2.8,,,,0,0

# Reference: patent US20230339874A1, “PIPERAZINYL COMPOUNDS AND METHODS FOR TREATING NEMATODE INFECTIONS” (The Governing Council of the University of Toronto, priority 2020, published 2023)
